Experimental data: patent US8119633B2, “Substituted sulfonamide compounds” (Gruenenthal GmbH, priority 2007, dated 2012)

Target: T1, human bradykinin receptor 1 (B1R) (Homo sapiens, UniProt P46663)
T1 construct: expressed in transfected cells; host or cells: CHO K1 cells
T1 sequence (P46663 1-353): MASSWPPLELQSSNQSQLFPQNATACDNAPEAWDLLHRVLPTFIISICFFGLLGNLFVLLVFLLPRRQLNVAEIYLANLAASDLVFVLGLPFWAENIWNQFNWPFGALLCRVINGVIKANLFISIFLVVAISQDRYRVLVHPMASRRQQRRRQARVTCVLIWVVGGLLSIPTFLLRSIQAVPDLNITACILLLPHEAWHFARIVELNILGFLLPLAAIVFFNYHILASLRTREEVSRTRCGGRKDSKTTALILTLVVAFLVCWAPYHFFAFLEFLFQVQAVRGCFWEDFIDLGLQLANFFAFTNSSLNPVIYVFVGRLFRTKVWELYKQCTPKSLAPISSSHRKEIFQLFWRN
Experiment: Functional study on the bradykinin receptor 1 (B1R), human: FLIPR Ca2+ influx assay
Assay type: cell-based
Details: test substance 10 μM; CHO K1 cells transfected with human B1R; Lys-Des-Arg9-bradykinin at EC80; Ca2+ influx (Fluo-4, FLIPR); read-out: B1R antagonism, human [10 μM] % inhibition
Source text: Functional Study on the Human Bradykinin Receptor 1 (B1R)
(§1) The agonistic or antagonistic action of substances can be determined on the bradykinin receptor 1 (B1R) of the species human and rat using the following assay. According to this assay, the Ca^2+ influx through the channel is quantified with the aid of a Ca^2+-sensitive dye (Fluo-4 type, Molecular Probes Europe BV, Leiden, Netherlands) using a Fluorescent Imaging Plate Reader (FLIPR, Molecular Devices, Sunnyvale, USA).
(§2) Chinese hamster ovary cells (CHO K1 cells) which have been stably transfected with the human B1R gene (hB1R cells) or with the B1R gene of the rat (rB1R cells) are used. For functional studies, the cells are plated out on black 96-well plates having a clear base (BD Biosciences, Heidelberg, Germany or Greiner, Frickenhausen, Germany) in a density of 20,000-35,000 cells/well. The cells are incubated overnight at 37° C. and with 5% CO2 in culture medium (hB1R cells: Nutrient Mixture Ham's F12, Gibco Invitrogen GmbH, Karlsruhe, Germany or DMEM, Sigma-Aldrich, Taufkirchen, Germany; rB1R cells: D-MEM/F12, Gibco Invitrogen GmbH, Karlsruhe, Germany), with 10 vol. % FBS (fetal bovine serum, Gibco Invitrogen GmbH, Karlsruhe, Germany or PAN Biotech GmbH, Aidenbach, Germany).
(§3) On the following day, the cells are loaded for 60 minutes at 37° C. with 2.13 μM Fluo-4 (Molecular Probes Europe BV, Leiden, Netherlands) in HBSS buffer (Hank's buffered saline solution, Gibco Invitrogen GmbH, Karlsruhe, Germany) with 2.5 mM probenecid (Sigma-Aldrich, Taufkirchen, Germany) and 10 mM HEPES (Sigma-Aldrich, Taufkirchen, Germany). The plates are then washed twice with HBSS buffer, and HBSS buffer additionally containing 0.1% BSA (bovine serum albumin; Sigma-Aldrich, Taufkirchen, Germany), 5.6 mM glucose and 0.05% gelatin (Merck KGaA, Darmstadt, Germany) is added to the plates. After incubation for a further 20 minutes at room temperature, the plates are inserted into the FLIPR for Ca^2+ measurement. Alternatively, washing is carried out with buffer A (15 mM HEPES, 80 mM NaCl, 5 mM KCl, 1.2 mM CaCl2, 0.7 mM MgSO4, 2 g/l glucose, 2.5 mM probenecid) followed by loading with buffer A with added 2.5 μM Fluo-4 and 0.025% Pluronic F127 (Sigma-Aldrich, Taufkirchen, Germany). The cells are then washed twice with buffer A and incubated for 30 minutes at room temperature with buffer A additionally containing 0.05% BSA and 0.05% gelatin and are then inserted into the FLIPR for Ca^2+ measurement.
(§4) The Ca^2+-dependent fluorescence is measured before and after the addition of substances (λex=488 nm, λem=540 nm). Quantification is carried out by measuring the highest fluorescence intensity (FC, fluorescence counts) over time.
(§5) The FLIPR protocol consists of two substance additions. Test substances (10 μM) are first pipetted onto the cells and the Ca^2+ influx is compared with the control (hB1R: Lys-Des-Arg^9-bradykinin>=0.5 nM; rB1R: Des-Arg^9-bradykinin 10 μM). This gives the activation in %, based on the Ca^2+ signal after addition of Lys-Des-Arg^9-bradykinin (>=0.5 nM) or Des-Arg^9-bradykinin (10 μM).
(§6) After 10-20 minutes' incubation, Lys-Des-Arg^9-bradykinin (hB1R) or Des-Arg^9-bradykinin (rB1R) is applied in the concentration of the EC80, and the influx of Ca^2+ is likewise determined.
(§7) Antagonists lead to suppression of the Ca^2+ influx. The % inhibition compared with the maximum achievable inhibition is calculated.
(§8) In order to determine the IC50 value, the substances are added in various concentrations. Duplicate or triplicate determinations (n=2 or n=3) are carried out, and these are repeated in at least one further independent experiment (N>=2).

SMILES	inhibition at 10 µM [%]
COc1ccc(S(=O)(=O)N2CCc3ccccc3C2CC(=O)NC2CCC(C(c3ccccc3)N(C)C)CC2)cc1 (centres unmarked) [Example 9, N-[4-(dimethylamino-phenyl-methyl)-cyclohexyl]-2-[2-(4-methoxy-benzenesulfonyl)-1,2,3,4-tetrahydro-isoquinolin-1-yl]-acetamide]	105
CN(C)C(c1ccccc1)C1CCC(NC(=O)CC2c3ccccc3CCN2S(=O)(=O)c2ccc(Cl)c(Cl)c2)CC1 (centres unmarked) [Example 10, 2-[2-(3,4-dichloro-benzenesulfonyl)-1,2,3,4-tetrahydro-isoquinolin-1-yl]-N-[4-(dimethylamino-phenyl-methyl)-cyclohexyl]-acetamide]	70.1

Target: T2, bradykinin receptor 1 (B1R) of the rat (Rattus norvegicus, UniProt P97583)
T2 construct: expressed in transfected cells; host or cells: CHO K1 cells
T2 sequence (P97583 1-337): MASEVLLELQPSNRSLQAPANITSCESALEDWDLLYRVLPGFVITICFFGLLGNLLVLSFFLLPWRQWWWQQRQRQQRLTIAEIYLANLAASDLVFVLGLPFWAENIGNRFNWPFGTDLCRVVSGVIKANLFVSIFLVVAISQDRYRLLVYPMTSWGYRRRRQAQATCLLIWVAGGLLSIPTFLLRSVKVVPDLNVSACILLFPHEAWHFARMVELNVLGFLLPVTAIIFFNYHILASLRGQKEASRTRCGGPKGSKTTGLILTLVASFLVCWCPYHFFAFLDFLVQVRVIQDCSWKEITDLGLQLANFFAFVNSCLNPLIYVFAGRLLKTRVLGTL
Experiment: Functional study on the bradykinin receptor 1 (B1R), rat: FLIPR Ca2+ influx assay
Assay type: cell-based
Details: test substance 10 μM; CHO K1 cells transfected with rat B1R; Des-Arg9-bradykinin at EC80; Ca2+ influx (Fluo-4, FLIPR); read-out: B1R antagonism, rat [10 μM] % inhibition
Source text: as §1, §2, §3, §4, §5, §6, §7, §8

SMILES	inhibition at 10 µM [%]
COc1ccc(S(=O)(=O)N2CCc3ccccc3C2CC(=O)NC2CCC(C(c3ccccc3)N(C)C)CC2)cc1 (centres unmarked) [Example 9, N-[4-(dimethylamino-phenyl-methyl)-cyclohexyl]-2-[2-(4-methoxy-benzenesulfonyl)-1,2,3,4-tetrahydro-isoquinolin-1-yl]-acetamide]	0
CN(C)C(c1ccccc1)C1CCC(NC(=O)CC2c3ccccc3CCN2S(=O)(=O)c2ccc(Cl)c(Cl)c2)CC1 (centres unmarked) [Example 10, 2-[2-(3,4-dichloro-benzenesulfonyl)-1,2,3,4-tetrahydro-isoquinolin-1-yl]-N-[4-(dimethylamino-phenyl-methyl)-cyclohexyl]-acetamide]	0
CN(C)C(c1ccccc1)C1CCC(NC(=O)c2c(N(C)S(=O)(=O)c3ccc(Cl)c(Cl)c3)sc3c2CCCC3)CC1 (centres unmarked) [Example 12, 2-[(3,4-dichloro-benzenesulfonyl)-methyl-amino]-4,5,6,7-tetrahydrobenzo[b]thiophene-3-carboxylic acid [4-(dimethylamino-phenyl-methyl)cyclohexyl]-amide]	0
CN(C)C(c1cccs1)C1CCC(CNC(=O)c2ccccc2N(C)S(=O)(=O)c2ccc(Cl)c(Cl)c2)CC1 (centres unmarked) [Example 42, 2-[(3,4-dichloro-benzenesulfonyl)-methyl-amino]-N-[4-(dimethylamino-thiophen-2-yl-methyl)-cyclohexylmethyl]-benzamide]	3
CN(C)C(c1ccccc1)C1CCC(CNC(=O)c2c(N(C)S(=O)(=O)c3ccc(Cl)c(Cl)c3)sc3c2CCCC3)CC1 (centres unmarked) [Example 46, 2-[(3,4-dichloro-benzenesulfonyl)-methyl-amino]-4,5,6,7-tetrahydrobenzo[b]thiophene-3-carboxylic acid [4-(dimethylamino-phenyl-methyl)cyclohexylmethyl]-amide]	-9
CN(C)C(c1ccc(F)cc1)C1CCC(CNC(=O)c2c(N(C)S(=O)(=O)c3ccc(Cl)c(Cl)c3)sc3c2CCCC3)CC1 (centres unmarked) [Example 47, 2-[(3,4-dichloro-benzenesulfonyl)-methyl-amino]-4,5,6,7-tetrahydrobenzo[b]thiophene-3-carboxylic acid {4-[dimethylamino-(4-fluoro-phenyl)methyl]-cyclohexylmethyl}-amide]	12
CN(C)C(c1ccc(Cl)cc1)C1CCC(CNC(=O)c2c(N(C)S(=O)(=O)c3ccc(Cl)c(Cl)c3)sc3c2CCCC3)CC1 (centres unmarked) [Example 48, 2-[(3,4-dichloro-benzenesulfonyl)-methyl-amino]-4,5,6,7-tetrahydrobenzo[b]thiophene-3-carboxylic acid {4-[(4-chloro-phenyl)-dimethylamino-methyl]-cyclohexylmethyl}-amide]	19
CN(C)C(c1cccs1)C1CCC(CNC(=O)c2c(N(C)S(=O)(=O)c3ccc(Cl)c(Cl)c3)sc3c2CCCC3)CC1 (centres unmarked) [Example 49, 2-[(3,4-dichloro-benzenesulfonyl)-methyl-amino]-4,5,6,7-tetrahydrobenzo[b]thiophene-3-carboxylic acid [4-(dimethylamino-thiophen-2-yl-methyl)cyclohexylmethyl]-amide]	19
CN(C)C(c1ccc(Cl)cc1)C1CCC(CCNC(=O)c2c(N(C)S(=O)(=O)c3ccc(Cl)c(Cl)c3)sc3c2CCCC3)CC1 (centres unmarked) [Example 50, N-(2-(4-((4-chlorophenyl)(dimethylamino)methyl)cyclohexyl)ethyl)-2-(3,4-dichloro-N-methylphenylsulfonamido)-4,5,6,7-tetrahydrobenzo[b]thiophene-3-carboxamide]	11
CN(C)C(c1cccc(F)c1)C1CCC(CCNC(=O)c2c(N(C)S(=O)(=O)c3ccc(Cl)c(Cl)c3)sc3c2CCCC3)CC1 (centres unmarked) [Example 51, 2-(3,4-dichloro-N-methylphenylsulfonamido)-N-(2-(4-((dimethylamino)(3-fluorophenyl)methyl)cyclohexyl)ethyl)-4,5,6,7-tetrahydrobenzo[b]thiophene-3-carboxamide]	1
CN(C)C(c1ccc(F)cc1)C1CCC(CCNC(=O)c2c(N(C)S(=O)(=O)c3ccc(Cl)c(Cl)c3)sc3c2CCCC3)CC1 (centres unmarked) [Example 52, 2-(3,4-dichloro-N-methylphenylsulfonamido)-N-(2-(4-((dimethylamino)(4-fluorophenyl)methyl)cyclohexyl)ethyl)-4,5,6,7-tetrahydrobenzo[b]thiophene-3-carboxamide]	-22
CN(C)C(c1cccs1)C1CCC(CCNC(=O)c2c(N(C)S(=O)(=O)c3ccc(Cl)c(Cl)c3)sc3c2CCCC3)CC1 (centres unmarked) [Example 53, 2-(3,4-dichloro-N-methylphenylsulfonamido)-N-(2-(4-((dimethylamino)(thiophen-2-yl)methyl)cyclohexyl)ethyl)-4,5,6,7-tetrahydrobenzo[b]thiophene-3-carboxamide]	12
CN(C)C(c1ccc(F)cc1)C1CCC(NC(=O)C2Cc3ccccc3N2S(=O)(=O)c2ccc(Cl)c(Cl)c2)CC1 (centres unmarked) [Example 94, 1-(3,4-dichlorophenylsulfonyl)-N-(4-((dimethylamino)(4-fluorophenyl)methyl)cyclohexyl)indoline-2-carboxamide]	-19
CN(C)C(CCc1ccccc1)C1CCC(CNC(=O)C2Cc3ccccc3N2S(=O)(=O)c2ccc(Cl)c(Cl)c2)CC1 (centres unmarked) [Example 96, 1-(3,4-dichlorophenylsulfonyl)-N-((4-(1-(dimethylamino)-3-phenylpropyl)cyclohexyl)methyl)indoline-2-carboxamide]	12
COc1ccc(S(=O)(=O)N(C)C2(C(=O)NCCC3CCC(C(c4ccccc4)N(C)C)CC3)CCCCC2)cc1 (centres unmarked) [Example 100, N-(2-(4-((dimethylamino)(phenyl)methyl)cyclohexyl)ethyl)-1-(4-methoxy-N-methylphenylsulfonamido)cyclohexanecarboxamide]	-2
